For experiment [1], the system named is A. succinogenes strain FZ45 830.60. Kind of experiment: Production fermentation of dextrose to succinic acid, strain FZ45 830.60. Format: cell-based, Actinobacillus succinogenes. An excerpt:
In a medium containing 90-155 g/l of dextrose as the primary carbon source supplemented with 15 g/liter of a commercial yeast extract (TASTONE™ 900AG from Sensient, Milwaukee, Wis.) the 830.60 strain was capable of producing a titer of 100 g/l of succinic acid with a 85-90% yield from dextrose at a productivity rate of 2 To 3 g/liter/hour.
For the present work, a variety of media alterations were tried in an attempt to substitute the commercial yeast extract with corn steep liquor and/or with a locally produced homogenized yeast extract made by homogenizing aerobically grown yeast produced incident to ethanol fermentation, and/or by supplementing the media with betaine and/or glutamate. To distinguish commercial yeast extract, which is available from distributors a dry powder, from a homogenate of yeast cells made locally by rupturing yeast cells in liquid suspension, the latter is referred to herein as “local yeast homogenate”
Corn steep liquor (CSL) was used as the target nutrient source to substitute for yeast extract. CSL is a by-product of wet corn milling obtained by steeping corn grain in water containing a small amount of a sulfide compound for several hours. CSL is rich in low molecular weight organic acids, some carbohydrates, vitamins and minerals that are released from the corn grain. The amount of CSL and local yeast homogenate is shown in terms of dry solids basis (dsb) meaning the amount of material added excluding water weight, per liter of fermentation. Glutamate was added in the form of monosodium glutamate (MSG) and betaine was added in the form of the anhydrous base in the amounts shown. Dextrose was present at between 90 and 125 g/l in all starting media.
Local yeast homogenate was obtained by aerobically growing an ethanol producing strain of the bakers yeast S. cerevesiae on dextrose until the culture reached stationary phase, recovering the yeast cells as paste, and homogenizing the yeast paste with an APV Gaulin French press type homogenizer at a pressures of 12,500 psi or greater. The glutamic acid was added in the form of monosodium glutamate, and the betaine was betaine base anhydrous from MP Biomedicals
Inoculum Medium A. succinogenes strain FZ45830,60, provided by MBI International, was grown in two 100 ml serum bottles each containing 50 ml of inoculum medium incubated at 38° C. for 15-24 hours by shaking in a rotary incubator at 180 rpm, which was then used as 5% vol/vol inoculum for final fermenter volume of 2.0 liters in a 7.5 lite fermenter. The inoculum medium was prepared in two steps. In the first step, 4 g of MgCO3 was weighed into a 100 ml Wheaton serum bottle containing 30 ml of distilled water, which was then sealed, autoclaved and cooled. In the second step the remaining ingredients, which were prepared as supplemental sterilized solutions, were added to the serum bottle with a sterile syringe. The supplemental solutions and formulation of the inoculum media are shown below.
The serum bottle was inoculated with 1.5 ml of an overnight culture grown in the same medium. The serum bottle was flushed and overlaid with CO2 before incubation
Seed Medium A New Brunswick EPPENDORF BiOFLO 310-7.5 liter fermenter was inoculated with the 2 serum bottles containing the inoculation culture for initial production fermentation studies or as a seed culture for larger scale fermentations. The operating conditions are listed below:
The seed medium contained 4 g/l CSL dsb, 14 g/l TASTONE 900AG yeast extract, 0.0002 g/l biotin, 10 ml/l 0.5M sodium phosphate buffer and 100 g/l dextrose. The pH was adjusted with a 35% Mg(OH)2 slurry. The seed fermenter was inoculated at 5% v/v from the incubated serum bottle culture and was harvested in the early log phase (e.g., an increase in OD of 3 to 4 units) other measure of early log phase?) Two hundred ml of the seed culture was used to inoculate 4 liters of media in a second 7.5 liter production fermenter. […]

For experiment [2], the system named is Actinobacillus Succinogenes. As to conditions: osmoprotectant added to media; cited from earlier work.

Take `C[N+](C)(C)CC(=O)O` [betaine, N,N,N-trimethylglycine]: in experiment [1] (betaine 0.1 to 1 g/liter), the succinic acid produced lay in the range of 70 to 115 g/L and the “succinic acid produced, concentration” value lay in the range of 590 to 980 mM. In experiment [1] (betaine 1 g/liter, Table 1), the productivity rate is 2.4-2.9 g per liter per hour, the titer is 90 to 104 g/L and the yield from glucose result was “about 85%”.
For the compound `O=C(O)CCCC[C@@H]1SC[C@@H]2NC(=O)N[C@@H]21` [biotin], the “effect on yield from glucose” value in experiment [1] (betaine provided as sole non-nutrative supplement) is given as “did not statistically increase the yield from glucose”.
Regarding `O=C(O)[C@@H]1CCCN1` [proline], the increase in productivity in experiment [2] was 22%.

The values are drawn from patent US20150147792A1, “Betaine Enhancement of Fermentation to make C4 Diacids” (ARCHER DANIELS MIDLAND COMPANY, priority 2012, published 2015).
